In patent US9266878B2, “Phosphatidylinositol 3-kinase inhibitors” (Gilead Calistoga LLC, priority 2012, dated 2016):

How the values were obtained:
Assay in all cases: Enzymatic activity of PI3K isoforms, TR-FRET assay (PIP3 formation)
Assay type in all cases: biochemical
[1] = target: PI3Kδ (Homo sapiens (Human), UniProt O00329); conditions: bound given in nM
Protocol: (§1) Enzymatic activity of the class I PI3K isoforms was measured using a time-resolved fluorescence resonance energy transfer (TR-FRET) assay that monitors formation of the product 3,4,5-inositol triphosphate molecule (PIP3), as it competes with fluorescently labeled PIP3 for binding to the GRP-1 pleckstrin homology domain protein. An increase in […] product results in a decrease in TR-FRET signal as the labeled fluorophore is displaced from the GRP-1 protein binding site.
(§2) Class I PI3K isoforms were expressed and purified as heterodimeric recombinant proteins. All assay reagents and buffers for the TR-FRET assay were purchased from Millipore. […] After an assay reaction time of 30 minutes at 25° C., reactions were terminated with a final concentration of 10 mM EDTA, 10 nM labeled-PIP3, and 35 nM Europium labeled GRP-1 detector protein before reading TR-FRET on an Envision plate reader (Ex: 340 nm; Em: 615/665 nm; 100 μs delay and 500 μs read window).
(§3) IC50 are reported in units of nM. These assays generally produced results within 3-fold of the reported mean.

[2] = target: PI3Kα (Homo sapiens (Human), UniProt P42336); conditions: bound given in uM
Sequence of PI3Kα (P42336 whole entry): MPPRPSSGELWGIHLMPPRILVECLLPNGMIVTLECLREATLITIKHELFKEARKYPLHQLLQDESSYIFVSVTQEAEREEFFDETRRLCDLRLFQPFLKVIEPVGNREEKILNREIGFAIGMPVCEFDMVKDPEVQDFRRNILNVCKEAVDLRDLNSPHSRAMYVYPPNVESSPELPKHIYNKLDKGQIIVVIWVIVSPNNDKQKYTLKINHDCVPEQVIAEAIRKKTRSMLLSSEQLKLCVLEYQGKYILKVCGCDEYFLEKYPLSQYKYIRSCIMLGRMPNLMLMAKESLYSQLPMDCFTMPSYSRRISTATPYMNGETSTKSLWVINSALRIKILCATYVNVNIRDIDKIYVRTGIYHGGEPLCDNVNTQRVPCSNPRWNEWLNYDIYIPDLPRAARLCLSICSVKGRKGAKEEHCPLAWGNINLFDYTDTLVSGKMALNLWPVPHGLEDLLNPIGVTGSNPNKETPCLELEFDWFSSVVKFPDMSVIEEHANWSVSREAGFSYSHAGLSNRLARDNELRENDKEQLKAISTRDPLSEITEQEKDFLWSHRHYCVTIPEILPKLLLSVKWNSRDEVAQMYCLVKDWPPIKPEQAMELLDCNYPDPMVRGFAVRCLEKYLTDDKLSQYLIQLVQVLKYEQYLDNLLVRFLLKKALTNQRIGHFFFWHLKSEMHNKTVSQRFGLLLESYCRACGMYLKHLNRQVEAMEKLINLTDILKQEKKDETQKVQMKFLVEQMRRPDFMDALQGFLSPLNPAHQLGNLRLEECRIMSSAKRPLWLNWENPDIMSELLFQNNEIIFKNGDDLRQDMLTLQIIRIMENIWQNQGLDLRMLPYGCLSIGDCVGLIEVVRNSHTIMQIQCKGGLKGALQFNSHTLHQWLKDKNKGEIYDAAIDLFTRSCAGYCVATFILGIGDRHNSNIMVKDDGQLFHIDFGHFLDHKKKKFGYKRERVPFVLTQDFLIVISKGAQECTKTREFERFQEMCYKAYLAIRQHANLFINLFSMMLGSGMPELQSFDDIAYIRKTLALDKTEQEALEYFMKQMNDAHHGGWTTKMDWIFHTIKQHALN
Sequence of PI3Kα (P27986 whole entry partner): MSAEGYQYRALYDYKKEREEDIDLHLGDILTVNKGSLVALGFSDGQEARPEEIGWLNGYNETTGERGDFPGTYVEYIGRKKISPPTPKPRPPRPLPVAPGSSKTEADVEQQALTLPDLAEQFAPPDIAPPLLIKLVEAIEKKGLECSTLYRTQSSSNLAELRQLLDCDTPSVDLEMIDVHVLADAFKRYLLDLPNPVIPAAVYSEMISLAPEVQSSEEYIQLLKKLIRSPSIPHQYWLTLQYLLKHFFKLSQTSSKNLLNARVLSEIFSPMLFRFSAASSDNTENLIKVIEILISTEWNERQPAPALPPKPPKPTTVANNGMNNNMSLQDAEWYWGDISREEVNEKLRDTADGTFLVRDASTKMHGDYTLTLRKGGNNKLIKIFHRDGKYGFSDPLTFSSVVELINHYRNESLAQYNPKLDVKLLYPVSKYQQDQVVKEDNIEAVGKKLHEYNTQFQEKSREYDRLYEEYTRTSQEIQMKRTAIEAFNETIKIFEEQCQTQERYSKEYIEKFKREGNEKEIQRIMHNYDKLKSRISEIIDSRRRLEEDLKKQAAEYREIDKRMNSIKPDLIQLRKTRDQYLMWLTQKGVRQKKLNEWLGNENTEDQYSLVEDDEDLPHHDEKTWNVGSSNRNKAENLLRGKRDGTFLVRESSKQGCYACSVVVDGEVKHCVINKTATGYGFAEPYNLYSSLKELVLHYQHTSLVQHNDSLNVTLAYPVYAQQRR
Protocol: as §1, §2, §3

[3] = target: PI3Kβ (Homo sapiens (Human), UniProt P42338)
Sequence of PI3Kβ (P42338 whole entry): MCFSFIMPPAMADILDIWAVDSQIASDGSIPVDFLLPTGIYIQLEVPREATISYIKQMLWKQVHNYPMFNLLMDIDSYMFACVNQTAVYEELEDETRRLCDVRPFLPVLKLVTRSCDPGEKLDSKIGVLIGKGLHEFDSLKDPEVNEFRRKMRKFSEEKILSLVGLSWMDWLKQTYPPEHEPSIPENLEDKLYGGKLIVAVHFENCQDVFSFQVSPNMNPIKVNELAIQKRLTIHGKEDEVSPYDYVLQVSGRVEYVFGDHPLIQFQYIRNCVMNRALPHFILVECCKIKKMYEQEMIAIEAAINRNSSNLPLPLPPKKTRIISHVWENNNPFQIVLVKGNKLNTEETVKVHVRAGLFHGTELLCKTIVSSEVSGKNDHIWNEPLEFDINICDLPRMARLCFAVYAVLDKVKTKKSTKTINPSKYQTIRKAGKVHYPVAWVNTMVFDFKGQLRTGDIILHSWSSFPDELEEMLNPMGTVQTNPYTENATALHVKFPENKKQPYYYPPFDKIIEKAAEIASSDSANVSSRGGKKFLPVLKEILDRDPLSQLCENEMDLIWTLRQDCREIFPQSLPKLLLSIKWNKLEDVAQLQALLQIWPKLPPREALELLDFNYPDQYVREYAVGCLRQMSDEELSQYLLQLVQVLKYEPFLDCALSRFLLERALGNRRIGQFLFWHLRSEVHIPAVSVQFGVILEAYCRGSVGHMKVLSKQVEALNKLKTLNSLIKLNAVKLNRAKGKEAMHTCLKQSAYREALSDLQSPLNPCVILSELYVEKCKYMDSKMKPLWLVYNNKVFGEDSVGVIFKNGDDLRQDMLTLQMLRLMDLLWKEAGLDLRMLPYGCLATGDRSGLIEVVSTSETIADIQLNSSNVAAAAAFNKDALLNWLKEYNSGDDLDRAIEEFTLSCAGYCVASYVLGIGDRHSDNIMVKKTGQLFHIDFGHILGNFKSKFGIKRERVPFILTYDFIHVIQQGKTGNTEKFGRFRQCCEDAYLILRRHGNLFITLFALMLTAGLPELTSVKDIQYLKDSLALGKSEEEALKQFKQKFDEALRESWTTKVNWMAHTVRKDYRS
Sequence of PI3Kβ (P27986 whole entry partner): as the sequence (P27986 whole entry partner) above
Protocol: as §1
(§4) Class I PI3K isoforms were expressed and purified as heterodimeric recombinant proteins. All assay reagents and buffers for the TR-FRET assay were purchased from Millipore.
(§5) IC50 are reported in units of nM.

[4] = target: PI3Kγ (Homo sapiens (Human), UniProt P48736); conditions: bound given in uM
Sequence of PI3Kγ (P48736 whole entry): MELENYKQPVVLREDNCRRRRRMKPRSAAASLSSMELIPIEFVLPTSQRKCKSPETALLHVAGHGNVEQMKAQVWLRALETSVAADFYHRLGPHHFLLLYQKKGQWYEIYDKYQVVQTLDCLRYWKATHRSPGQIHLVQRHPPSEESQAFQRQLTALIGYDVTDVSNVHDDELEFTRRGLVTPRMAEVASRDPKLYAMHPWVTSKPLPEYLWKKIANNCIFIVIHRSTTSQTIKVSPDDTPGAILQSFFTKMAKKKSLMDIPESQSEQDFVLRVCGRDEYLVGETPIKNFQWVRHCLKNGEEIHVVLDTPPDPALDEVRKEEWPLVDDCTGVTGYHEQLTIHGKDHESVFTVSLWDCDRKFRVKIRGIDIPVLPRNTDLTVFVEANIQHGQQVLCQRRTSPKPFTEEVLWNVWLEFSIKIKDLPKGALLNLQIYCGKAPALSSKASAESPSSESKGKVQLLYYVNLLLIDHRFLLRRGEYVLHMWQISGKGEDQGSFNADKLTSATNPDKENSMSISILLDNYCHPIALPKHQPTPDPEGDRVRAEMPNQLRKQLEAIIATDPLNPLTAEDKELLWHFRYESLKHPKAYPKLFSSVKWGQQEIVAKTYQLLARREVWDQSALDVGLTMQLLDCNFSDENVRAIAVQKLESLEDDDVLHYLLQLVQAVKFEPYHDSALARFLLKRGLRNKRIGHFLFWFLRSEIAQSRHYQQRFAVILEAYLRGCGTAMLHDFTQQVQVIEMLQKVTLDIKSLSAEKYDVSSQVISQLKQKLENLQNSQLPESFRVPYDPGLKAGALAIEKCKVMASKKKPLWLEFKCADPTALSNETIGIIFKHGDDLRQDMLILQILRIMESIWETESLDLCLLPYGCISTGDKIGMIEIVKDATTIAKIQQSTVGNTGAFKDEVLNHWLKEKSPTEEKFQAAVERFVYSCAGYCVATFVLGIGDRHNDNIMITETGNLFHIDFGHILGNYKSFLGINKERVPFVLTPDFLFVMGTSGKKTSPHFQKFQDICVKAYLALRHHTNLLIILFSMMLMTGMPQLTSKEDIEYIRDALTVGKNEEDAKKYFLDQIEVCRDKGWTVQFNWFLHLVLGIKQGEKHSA
Sequence of PI3Kγ (Q8WYR1 whole entry partner): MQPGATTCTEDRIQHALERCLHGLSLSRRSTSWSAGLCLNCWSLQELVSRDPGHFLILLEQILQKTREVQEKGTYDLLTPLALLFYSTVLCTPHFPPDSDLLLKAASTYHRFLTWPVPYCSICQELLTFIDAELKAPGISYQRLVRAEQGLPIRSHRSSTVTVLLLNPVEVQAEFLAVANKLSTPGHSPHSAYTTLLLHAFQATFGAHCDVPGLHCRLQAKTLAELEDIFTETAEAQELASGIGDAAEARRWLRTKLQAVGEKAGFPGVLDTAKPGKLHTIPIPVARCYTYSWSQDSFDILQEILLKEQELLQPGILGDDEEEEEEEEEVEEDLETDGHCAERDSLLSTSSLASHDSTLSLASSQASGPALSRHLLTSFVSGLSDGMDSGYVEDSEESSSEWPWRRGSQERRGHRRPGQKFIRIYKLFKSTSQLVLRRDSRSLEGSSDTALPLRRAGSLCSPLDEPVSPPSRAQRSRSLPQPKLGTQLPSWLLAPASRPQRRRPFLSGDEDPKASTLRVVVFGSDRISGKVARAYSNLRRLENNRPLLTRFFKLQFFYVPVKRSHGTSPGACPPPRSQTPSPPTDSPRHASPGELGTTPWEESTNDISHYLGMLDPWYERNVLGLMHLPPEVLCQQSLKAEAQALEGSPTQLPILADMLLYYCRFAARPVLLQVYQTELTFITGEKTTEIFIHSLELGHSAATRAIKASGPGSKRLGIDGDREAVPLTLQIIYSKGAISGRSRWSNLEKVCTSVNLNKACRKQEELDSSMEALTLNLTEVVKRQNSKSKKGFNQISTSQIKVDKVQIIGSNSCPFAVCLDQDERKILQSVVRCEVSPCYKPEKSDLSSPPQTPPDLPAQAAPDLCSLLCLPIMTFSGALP
Protocol: as §1, §4, §5

IC50 [1] | IC50 [2] | IC50 ([3]; bound given in uM) | IC50 ([3]; bound given in nM) | IC50 [4] | Structure (SMILES)
< 100 nM | > 1 µM | > 1 µM |  |  | COC(=O)c1ccc(C#Cc2c(N)ncnc2N[C@@H](C)c2nc3cccc(Cl)c3c(=O)n2-c2ccccc2)nc1 [Compound 3a, (S)-methyl 6-((4-amino-6-(1-(5-chloro-4-oxo-3-phenyl-3,4-dihydroquinazolin-2-yl)ethylamino)pyrimidin-5-yl)ethynyl)nicotinate]
< 100 nM |  |  | < 0.1 µM |  | C[C@H](Nc1ncnc(N)c1C#Cc1cccc(N)n1)c1nc2cccc(Cl)c2c(=O)n1-c1cc(F)cc(F)c1 [Compound 15a, (S)-2-(1-(6-amino-5-((6-aminopyridin-2-yl)ethynyl)pyrimidin-4-ylamino)ethyl)-5-chloro-3-(3,5-difluorophenyl)quinazolin-4(3H)-one]
< 100 nM | > 1 µM |  | < 0.1 µM |  | C[C@H](Nc1ncnc(N)c1C#Cc1cnccn1)c1nc2cccc(Cl)c2c(=O)n1-c1ccccc1 [Compound 16a, (S)-2-(1-(6-amino-5-(pyrazin-2-ylethynyl)pyrimidin-4-ylamino)ethyl)-5-chloro-3-phenylquinazolin-4(3H)-one]
< 100 nM | > 1 µM | > 1 µM |  |  | C[C@H](Nc1ncnc(N)c1C#Cc1ccc(OC(F)(F)F)cc1)c1nc2cccc(Cl)c2c(=O)n1-c1ccccc1 [Compound 27a, (S)-2-(1-(6-amino-5-((4-(trifluoromethoxy)phenyl)ethynyl)pyrimidin-4-ylamino)ethyl)-5-chloro-3-phenylquinazolin-4(3H)-one]
< 100 nM |  |  | < 0.1 µM |  | Cc1cccc2nc([C@H](C)Nc3ncnc(N)c3C#Cc3ccccn3)n(-c3ccccc3)c(=O)c12 [Compound 30a, (S)-2-(1-(6-amino-5-(pyridin-2-ylethynyl)pyrimidin-4-ylamino)ethyl)-5-methyl-3-phenylquinazolin-4(3H)-one]
< 100 nM | > 1 µM | > 1 µM |  |  | C[C@H](Nc1ncnc(N)c1C#Cc1cncnc1)c1nc2cccc(Cl)c2c(=O)n1-c1ccccc1 [Compound 42a, (S)-2-(1-(6-amino-5-(pyrimidin-5-ylethynyl)pyrimidin-4-ylamino)ethyl)-5-chloro-3-phenylquinazolin-4(3H)-one]
< 100 nM | > 1 µM | > 1 µM |  |  | C[C@H](Nc1ncnc(N)c1C#Cc1cccnc1)c1nc2cccc(Cl)c2c(=O)n1-c1cc(F)cc(F)c1 [Compound 43a, (S)-2-(1-(6-amino-5-(pyridin-3-ylethynyl)pyrimidin-4-ylamino)ethyl)-5-chloro-3-(3,5-difluorophenyl)quinazolin-4(3H)-one]
< 100 nM |  |  | < 0.1 µM |  | C[C@H](Nc1ncnc(N)c1C#Cc1ccccn1)c1nc2cccc(Cl)c2c(=O)n1-c1ccccc1 [Compound 50a, (S)-2-(1-(6-amino-5-(pyridin-2-ylethynyl)pyrimidin-4-ylamino)ethyl)-5-chloro-3-phenylquinazolin-4(3H)-one]
< 100 nM | > 1 µM | > 1 µM |  |  | C[C@H](Nc1ncnc(N)c1C#Cc1ccc(F)cn1)c1nc2cccc(C(F)F)c2c(=O)n1-c1ccccc1 [Compound 67a, (S)-2-(1-((6-amino-5-((5-fluoropyridin-2-yl)ethynyl)pyrimidin-4-yl)amino)ethyl)-5-(difluoromethyl)-3-phenylquinazolin-4(3H)-one]
< 100 nM |  |  | < 0.1 µM |  | Cc1ccc(F)c2nc([C@H](C)Nc3ncnc(N)c3C#Cc3cnccn3)n(-c3ccccc3)c(=O)c12 [Compound 75a, (S)-2-(1-((6-amino-5-(pyrazin-2-ylethynyl)pyrimidin-4-yl)amino)ethyl)-8-fluoro-5-methyl-3-phenylquinazolin-4(3H)-one]
< 100 nM | > 1 µM | > 1 µM |  |  | C[C@H](Nc1nc(N)nc(N)c1C#Cc1ccc(F)cn1)c1nc2cccc(Cl)c2c(=O)n1-c1cc(F)cc(F)c1 [Compound 78a, (S)-5-chloro-2-(1-((2,6-diamino-5-((5-fluoropyridin-2-yl)ethynyl)pyrimidin-4-yl)amino)ethyl)-3-(3,5-difluorophenyl)quinazolin-4(3H)-one]
< 100 nM | > 1 µM | > 1 µM |  |  | C[C@H](Nc1nc(N)nc(N)c1C#Cc1ccc(F)cn1)c1nc2cccc(Cl)c2c(=O)n1-c1ccccc1 [Compound 83a, (S)-5-chloro-2-(1-((2,6-diamino-5-((5-fluoropyridin-2-yl)ethynyl)pyrimidin-4-yl)amino)ethyl)-3-phenylquinazolin-4(3H)-one]
< 100 nM | > 1 µM | > 1 µM |  |  | C[C@H](Nc1ncnc(N)c1C#Cc1ccc(F)cn1)c1nc2c(F)ccc(Cl)c2c(=O)n1-c1cc(F)cc(F)c1 [Compound 84a, (S)-2-(1-((6-amino-5-((5-fluoropyridin-2-yl)ethynyl)pyrimidin-4-yl)amino)ethyl)-5-chloro-3-(3,5-difluorophenyl)-8-fluoroquinazolin-4(3H)-one]
< 100 nM |  |  | < 0.1 µM |  | Cc1cccc2nc([C@H](C)Nc3ncnc(N)c3C#Cc3cnccn3)n(-c3ccccc3)c(=O)c12 [Compound 98a, (S)-2-(1-((6-amino-5-(pyrazin-2-ylethynyl)pyrimidin-4-yl)amino)ethyl)-5-methyl-3-phenylquinazolin-4(3H)-one]
< 100 nM |  | > 1 µM |  |  | C[C@H](Nc1ncnc(N)c1C#Cc1ccccc1)c1nc2cccc(S(C)(=O)=O)c2c(=O)n1-c1ccccc1 [Compound 112a, (S)-2-(1-((6-amino-5-(phenylethynyl)pyrimidin-4-yl)amino)ethyl)-5-(methylsulfonyl)-3-phenylquinazolin-4(3H)-one]
 | > 1 µM | > 1 µM |  |  | C[C@H](Nc1ncnc(N)c1C#Cc1ccc(C(F)(F)F)cn1)c1nc2cccc(Cl)c2c(=O)n1-c1cc(F)cc(F)c1 [Compound 134a, (S)-2-(1-((6-amino-5-((5-(trifluoromethyl)pyridin-2-yl)ethynyl)pyrimidin-4-yl)amino)ethyl)-5-chloro-3-(3,5-difluorophenyl)quinazolin-4(3H)-one]
< 100 nM | > 1 µM | > 1 µM |  |  | C[C@H](Nc1ncnc(N)c1C#Cc1ccc(C(N)=O)cn1)c1nc2cccc(Cl)c2c(=O)n1-c1cc(F)cc(F)c1 [Compound 136a, (S)-6-((4-amino-6-((1-(5-chloro-3-(3,5-difluorophenyl)-4-oxo-3,4-dihydroquinazolin-2-yl)ethyl)amino)pyrimidin-5-yl)ethynyl)nicotinamide]
< 100 nM | > 1 µM |  | < 0.1 µM |  | Cc1cccc(C#Cc2c(N)ncnc2N[C@@H](C)c2nc3cccc(Cl)c3c(=O)n2-c2ccccc2)n1 [Compound 141a, (S)-2-(1-((6-amino-5-((6-methylpyridin-2-yl)ethynyl)pyrimidin-4-yl)amino)ethyl)-5-chloro-3-phenylquinazolin-4(3H)-one]
< 100 nM | > 1 µM |  | < 0.1 µM |  | C[C@H](Nc1ncnc(N)c1C#Cc1ncccc1C(F)(F)F)c1nc2cccc(Cl)c2c(=O)n1-c1ccccc1 [Compound 142a, (S)-2-(1-((6-amino-5-((3-(trifluoromethyl)pyridin-2-yl)ethynyl)pyrimidin-4-yl)amino)ethyl)-5-chloro-3-phenylquinazolin-4(3H)-one]
< 100 nM |  |  | < 0.1 µM |  | Cc1ccnc(C#Cc2c(N)ncnc2N[C@@H](C)c2nc3cccc(Cl)c3c(=O)n2-c2ccccc2)c1 [Compound 147a, (S)-2-(1-((6-amino-5-((4-methylpyridin-2-yl)ethynyl)pyrimidin-4-yl)amino)ethyl)-5-chloro-3-phenylquinazolin-4(3H)-one]
< 100 nM | > 1 µM |  |  | > 1 µM | CC(=O)c1cccnc1C#Cc1c(N)ncnc1N[C@@H](C)c1nc2cccc(Cl)c2c(=O)n1-c1ccccc1 [Compound 152a, (S)-2-(1-((5-((3-acetylpyridin-2-yl)ethynyl)-6-aminopyrimidin-4-yl)amino)ethyl)-5-chloro-3-phenylquinazolin-4(3H)-one]
< 100 nM |  |  | < 0.1 µM |  | C[C@H](Nc1ncnc(N)c1C#Cc1cc(C(N)=O)ccn1)c1nc2cccc(Cl)c2c(=O)n1-c1ccccc1 [Compound 156a, (S)-2-((4-amino-6-((1-(5-chloro-4-oxo-3-phenyl-3,4-dihydroquinazolin-2-yl)ethyl)amino)pyrimidin-5-yl)ethynyl)isonicotinamide]
< 100 nM | > 1 µM |  |  | > 1 µM | COC(=O)c1ccnc(C#Cc2c(N)ncnc2N[C@@H](C)c2nc3cccc(Cl)c3c(=O)n2-c2ccccc2)c1 [Compound 158a, (S)-methyl 2-((4-amino-6-((1-(5-chloro-4-oxo-3-phenyl-3,4-dihydroquinazolin-2-yl)ethyl)amino)pyrimidin-5-yl)ethynyl)isonicotinate]
< 100 nM | > 1 µM |  |  | > 1 µM | C[C@H](Nc1ncnc(N)c1C#Cc1cccc(CO)c1)c1nc2cccc(Cl)c2c(=O)n1-c1ccccc1 [Compound 162a, (S)-2-(1-((6-amino-5-((3-(hydroxymethyl)phenyl)ethynyl)pyrimidin-4-yl)amino)ethyl)-5-chloro-3-phenylquinazolin-4(3H)-one]
